Here are results for 13 molecules from patent US20070218486A1, “Immunoassays, Haptens, Immunogens and Antibodies for Anti-HIV Therapeutics” (Ark Diagnostics, Inc., priority 2006, published 2007).

Where a name gives a salt, the structure may show the parent alone. Read-outs that look alike come from different tables or passages of the source.

One data set concerns Anti-(H12)2. The data set is described as follows: Specificity of the immunoassay (cross-reactivity in human serum). Format: binding, rabbit. The settings on record: 10 μg/mL of crossreactant plus 5 μg/mL of tipranavir in human serum. Here is the method:
Also antibody Anti-(H12)2 was used in this Example as part of an antibody reagent (“Anti-(H12)2 Antibody Reagent”) further comprising nicotinamide adenine dinucleotide, glucose-6-phosphate, sodium chloride, bulking agent, surfactant, and preservatives.
An immunoassay for tipranavir was conducted on the Cobas Mira Chemistry Analyzer (Roche). On the analyzer, 4 μL of sample plus 61 μL water were incubated for 300 sec with 150 μL of Anti-(H12)2 Antibody Reagent. […] After 25 sec incubation, enzyme activity was monitored by following the production of NADH spectrophotometrically at 340 nm for 50 sec.
Testing was performed on the Cobas Mira analyzer. The percentage concentration above 5 μg/mL of tipranavir was calculated for each crossreactant.

For data set [1] the following is noted: cited from earlier work.
Data set [2] addresses T1, mammalian DNA polymerases α (Homo sapiens, UniProt P09884).
T1 sequence (P09884 1-1462): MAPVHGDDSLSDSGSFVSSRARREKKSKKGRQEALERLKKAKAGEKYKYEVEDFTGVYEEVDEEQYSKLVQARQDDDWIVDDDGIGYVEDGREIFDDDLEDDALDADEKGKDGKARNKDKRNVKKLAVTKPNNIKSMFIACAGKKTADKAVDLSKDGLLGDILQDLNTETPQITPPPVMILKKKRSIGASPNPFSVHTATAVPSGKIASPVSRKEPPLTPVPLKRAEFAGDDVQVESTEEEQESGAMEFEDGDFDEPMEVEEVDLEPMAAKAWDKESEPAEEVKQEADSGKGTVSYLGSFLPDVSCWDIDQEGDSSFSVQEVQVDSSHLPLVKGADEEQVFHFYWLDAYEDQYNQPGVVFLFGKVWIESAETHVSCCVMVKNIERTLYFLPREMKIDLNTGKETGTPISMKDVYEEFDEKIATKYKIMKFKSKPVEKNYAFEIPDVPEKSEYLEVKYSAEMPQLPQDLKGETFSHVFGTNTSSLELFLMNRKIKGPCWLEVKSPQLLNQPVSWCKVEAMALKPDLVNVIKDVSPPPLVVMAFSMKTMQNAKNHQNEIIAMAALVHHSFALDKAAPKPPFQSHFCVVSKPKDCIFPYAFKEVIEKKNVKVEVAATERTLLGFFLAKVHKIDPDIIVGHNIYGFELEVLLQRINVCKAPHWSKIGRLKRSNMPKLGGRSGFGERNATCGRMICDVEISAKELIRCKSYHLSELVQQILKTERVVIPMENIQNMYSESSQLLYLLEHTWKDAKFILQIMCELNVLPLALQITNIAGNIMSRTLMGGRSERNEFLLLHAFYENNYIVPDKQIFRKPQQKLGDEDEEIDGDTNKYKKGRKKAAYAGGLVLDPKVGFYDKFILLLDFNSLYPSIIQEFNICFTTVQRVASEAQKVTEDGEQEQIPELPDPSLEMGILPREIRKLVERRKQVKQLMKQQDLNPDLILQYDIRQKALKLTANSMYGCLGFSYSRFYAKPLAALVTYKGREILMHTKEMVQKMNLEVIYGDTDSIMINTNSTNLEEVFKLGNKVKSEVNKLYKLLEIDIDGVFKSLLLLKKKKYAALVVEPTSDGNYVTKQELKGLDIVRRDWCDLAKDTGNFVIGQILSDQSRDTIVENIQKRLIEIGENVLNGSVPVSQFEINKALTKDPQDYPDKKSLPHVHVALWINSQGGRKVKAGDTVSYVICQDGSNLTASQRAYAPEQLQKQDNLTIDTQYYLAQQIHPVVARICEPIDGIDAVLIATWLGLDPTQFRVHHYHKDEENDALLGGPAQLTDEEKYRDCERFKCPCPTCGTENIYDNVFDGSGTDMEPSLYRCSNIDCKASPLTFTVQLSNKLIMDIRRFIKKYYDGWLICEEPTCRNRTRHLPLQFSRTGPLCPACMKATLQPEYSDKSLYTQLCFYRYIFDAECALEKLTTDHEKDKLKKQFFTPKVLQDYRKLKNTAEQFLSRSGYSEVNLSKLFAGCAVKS
The settings on record: cited from earlier work.

The target of data set [3] is mammalian DNA polymerases β (Homo sapiens, UniProt P06746). The following applies: cited from earlier work.
In data set [4] the target is T2, mitochondrial DNA polymerase γ (Homo sapiens, UniProt P54098).
T2 sequence (P54098 1-1239): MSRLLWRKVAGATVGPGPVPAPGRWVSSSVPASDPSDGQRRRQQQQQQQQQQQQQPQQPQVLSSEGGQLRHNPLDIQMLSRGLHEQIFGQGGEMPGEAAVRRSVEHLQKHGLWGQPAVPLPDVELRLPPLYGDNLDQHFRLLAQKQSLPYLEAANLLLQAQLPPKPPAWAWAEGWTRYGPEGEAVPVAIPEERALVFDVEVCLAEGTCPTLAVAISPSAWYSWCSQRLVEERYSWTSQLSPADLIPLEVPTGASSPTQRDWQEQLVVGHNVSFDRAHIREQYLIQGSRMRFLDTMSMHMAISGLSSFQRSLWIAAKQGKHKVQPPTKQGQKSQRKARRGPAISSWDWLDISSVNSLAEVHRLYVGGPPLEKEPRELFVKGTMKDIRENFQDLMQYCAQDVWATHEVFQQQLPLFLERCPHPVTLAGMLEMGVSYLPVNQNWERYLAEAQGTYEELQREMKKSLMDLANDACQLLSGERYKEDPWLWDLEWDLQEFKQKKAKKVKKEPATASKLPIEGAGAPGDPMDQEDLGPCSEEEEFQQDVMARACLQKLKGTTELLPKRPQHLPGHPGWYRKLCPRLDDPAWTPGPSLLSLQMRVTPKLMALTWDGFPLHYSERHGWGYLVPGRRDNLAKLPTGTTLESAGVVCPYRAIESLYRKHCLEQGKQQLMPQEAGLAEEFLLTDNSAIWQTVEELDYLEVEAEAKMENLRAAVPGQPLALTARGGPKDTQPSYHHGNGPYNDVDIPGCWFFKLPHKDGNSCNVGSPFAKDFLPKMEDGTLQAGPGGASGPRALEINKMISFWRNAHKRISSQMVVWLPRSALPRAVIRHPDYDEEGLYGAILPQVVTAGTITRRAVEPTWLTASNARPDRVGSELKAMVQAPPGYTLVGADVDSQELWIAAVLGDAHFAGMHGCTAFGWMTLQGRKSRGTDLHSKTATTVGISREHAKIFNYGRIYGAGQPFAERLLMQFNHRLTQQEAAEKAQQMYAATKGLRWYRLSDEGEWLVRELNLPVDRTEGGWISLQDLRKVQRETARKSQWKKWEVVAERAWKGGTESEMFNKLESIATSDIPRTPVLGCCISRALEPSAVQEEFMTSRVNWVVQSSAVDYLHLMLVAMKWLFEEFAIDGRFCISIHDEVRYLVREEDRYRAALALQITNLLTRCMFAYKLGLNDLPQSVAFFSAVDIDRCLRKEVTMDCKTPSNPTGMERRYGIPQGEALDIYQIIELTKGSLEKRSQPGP
The settings on record: cited from earlier work.

The conditions of data set [5]: cited from earlier work. The source holds these as a separate data set.
For data set [6], the system named is primary hepatocyte. The settings on record: rat; cited from earlier work.
Data set [7] has as its system primary hepatocyte. The following applies: dog; cited from earlier work.
For data set [8], the system named is primary hepatocyte. The following applies: human; cited from earlier work.
The conditions of data set [9]: rats; cited from earlier work.
For data set [10] the following is noted: dogs; cited from earlier work.
In another data set the test system is CYP450 enzymes. The settings on record: in vitro; cited from earlier work.

For the molecule 2′-deoxy-3′-thiacytidine [Lamivudine], the “Percent Increase in Apparent Tipranavir” value in the data set on Anti-(H12)2 came to 0%. Also, the absolute bioavailability entry in [1] (adults) was “approximately 82%”; in [1] (children), around 68%. In addition, the “time to maximum serum concentrations after the dose” value in [1] (oral administration) was 0.5 to 1.5 h. The “oral dose eliminated renally as unchanged drug” value in data set [1] (oral dose) was “approximately 70%”. Further, the “secretion into breast milk” value in data set [1] (postpartum women) is given as “secreted into breast milk”. The placental transfer result in [1] (pregnant women) is recorded as “diffuses freely across the placenta”. Besides, in [1] (with food), the “systemic exposure (AUC) when administered with food” value is “not altered”.

Take `CC(Cn1cnc2c(N)ncnc21)OCP(=O)(O)OP(=O)(O)OP(=O)(O)O` (stereo in doubt) [Tenofovir diphosphate]: the “inhibition of DNA polymerase α” value in data set [2] was “weak inhibitor”. For the same molecule, the “inhibition of DNA polymerase β” value in data set [3] was “weak inhibitor”. Further, the “inhibition of mitochondrial DNA polymerase γ” value in [4] was “weak inhibitor”.

Take `CC(C)CN(C[C@@H](O)[C@H](Cc1ccccc1)NC(=O)O[C@H]1CCOC1)S(=O)(=O)c1ccc(N)cc1` [Amprenavir]: in the data set with Anti-(H12)2, the “Percent Increase in Apparent Tipranavir” value was determined as 0%.

As to `O=C1Nc2ccc(Cl)cc2[C@@](C#CC2CC2)(C(F)(F)F)O1` [Efavirenz], the “Percent Increase in Apparent Tipranavir” value in the data set on Anti-(H12)2 turned out to be 0%.

Take `CC(C)(C)NC(=O)[C@@H]1CN(Cc2cccnc2)CCN1C[C@@H](O)C[C@@H](Cc1ccccc1)C(=O)N[C@H]1c2ccccc2C[C@H]1O` [Indinavir]: the “Percent Increase in Apparent Tipranavir” value in the data set on Anti-(H12)2 is given as 0%.

For the molecule `Cc1cccc(C)c1OCC(=O)N[C@@H](Cc1ccccc1)[C@@H](O)C[C@H](Cc1ccccc1)NC(=O)[C@H](C(C)C)N1CCCNC1=O` [Lopinavir], the “Percent Increase in Apparent Tipranavir” value with Anti-(H12)2 is on record as 0%.

With `Cc1c(O)cccc1C(=O)N[C@@H](CSc1ccccc1)[C@H](O)CN1C[C@H]2CCCC[C@H]2C[C@H]1C(=O)NC(C)(C)C` [Nelfinavir], in the data set on Anti-(H12)2, the “Percent Increase in Apparent Tipranavir” value is listed as 0%.

For `CC(C)c1nc(CN(C)C(=O)N[C@H](C(=O)N[C@@H](Cc2ccccc2)C[C@H](O)[C@H](Cc2ccccc2)NC(=O)OCc2cncs2)C(C)C)cs1` [Ritonavir], in the data set on Anti-(H12)2, the “Percent Increase in Apparent Tipranavir” value is listed as 0%.

As to `CC(C)(C)NC(=O)[C@@H]1C[C@@H]2CCCC[C@@H]2CN1C[C@@H](O)[C@H](Cc1ccccc1)NC(=O)[C@H](CC(N)=O)NC(=O)c1ccc2ccccc2n1` [Saquinavir], the “Percent Increase in Apparent Tipranavir” value with Anti-(H12)2 was 0%.

Take `CC(C)OC(=O)OCOP(=O)(CO[C@H](C)Cn1cnc2c(N)ncnc21)OCOC(=O)OC(C)C` [Tenofovir disoproxil fumarate]: in data set [5] (multiple oral doses 300 mg once daily (under fed conditions), over 24 hours), the “administered dose recovered in urine” value is recorded as 32±10%.

As to `CCC[C@@]1(CCc2ccccc2)CC(O)=C([C@H](CC)c2cccc(NS(=O)(=O)c3ccc(C(F)(F)F)cn3)c2)C(=O)O1` [Tipranavir], the “stability in primary hepatocyte incubations” value in the data set with primary hepatocyte [6], in the data set on primary hepatocyte [7] and in the data set with primary hepatocyte [8] was “stable” in each case. Further, the plasma metabolic profile entry in [9] and in data set [10] was “only the parent drug” in each case.

Take `CC(C)OC(=O)OCOP(=O)(CO[C@H](C)Cn1cnc2c(N)ncnc21)OCOC(=O)OC(C)C` [tenofovir disoproxil]: in the data set with CYP450 enzymes, the “substrate of CYP450 enzymes” value was “neither tenofovir disoproxil nor tenofovir are substrates of CYP450 enzymes”.

As to Tenofovir, the “dose recovered in the urine as unchanged tenofovir” value in data set [5] (IV administration, within 72 hours of dosing) is on record as 70-80%. Besides, the terminal elimination half-life result in data set [5] (single dose, oral administration of Tenofovir disoproxil fumarate) is given as “approximately 17 hours”. Besides, in the data set on CYP450 enzymes, the “substrate of CYP450 enzymes” value is on record as “neither tenofovir disoproxil nor tenofovir are substrates of CYP450 enzymes”.
